molecular target: T1, human PTHR1 receptor (Homo sapiens, UniProt Q03431); test: Competitive antagonist binding assay for hPTH-R1 (radioactive competition binding, SPA beads); conditions: human PTHR1 membranes, [125I]-[Nle8,18,Tyr34]-PTH(1-34) 0.2 nM, 90 minutes at room temperature; read-out: hPTHR1 Ki
T1 construct: purchased Eurofins HTS030M
T1 sequence (Q03431 27-593): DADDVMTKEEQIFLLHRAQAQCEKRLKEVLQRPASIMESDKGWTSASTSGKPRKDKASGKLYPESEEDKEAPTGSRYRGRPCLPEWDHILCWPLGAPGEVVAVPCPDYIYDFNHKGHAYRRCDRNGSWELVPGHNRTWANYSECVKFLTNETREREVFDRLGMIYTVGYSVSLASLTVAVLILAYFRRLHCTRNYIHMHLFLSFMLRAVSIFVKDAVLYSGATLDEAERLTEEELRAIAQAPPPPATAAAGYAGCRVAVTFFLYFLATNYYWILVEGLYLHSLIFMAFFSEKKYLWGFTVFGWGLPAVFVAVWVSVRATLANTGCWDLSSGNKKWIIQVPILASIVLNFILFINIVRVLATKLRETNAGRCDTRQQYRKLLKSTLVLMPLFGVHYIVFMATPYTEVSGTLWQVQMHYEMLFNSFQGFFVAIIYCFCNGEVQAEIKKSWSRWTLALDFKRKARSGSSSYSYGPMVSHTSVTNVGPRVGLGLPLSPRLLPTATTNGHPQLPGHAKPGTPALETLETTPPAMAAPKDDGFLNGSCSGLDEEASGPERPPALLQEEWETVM
Summary of the method: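 Human PTHR1 membranes on SPA beads incubated 90 min at room temperature with compound (typically 0-10,000 nM final) and 0.2 nM [125I]-[Nle8,18,Tyr34]-PTH(1-34) in HEPES buffer with MgCl2, CaCl2, BSA, Triton X-100 and protease inhibitors, pH 7.4. Scintillation signal read; Ki values derived.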

| SMILES | Ki |
| --- | --- |
| CNCCNc1cc(F)c(N2C(=O)N(C)c3ncc(Cl)cc3-c3ccc(Cl)cc32)c(F)c1 [1-30, 4,13-dichloro-10-(2,6-difluoro-4-{[2-(methylamino)ethyl]amino}phenyl)-8-methyl-6,8,10-triazatricyclo[9.4.0.0^2,7]pentadeca-1(11),2(7),3,5,12,14-hexaen-9-one] | < 100 nM |
| CCN1C(=O)N(c2c(F)cc(NCCNC)cc2F)c2cc(Cl)ccc2-c2cc(Cl)cnc21 [1-8, 4,13-dichloro-10-(2,6-difluoro-4-{[2-(methylamino)ethyl]amino}phenyl)-8-ethyl-6,8,10-triazatricyclo[9.4.0.0^2,7]pentadeca-1(11),2(7),3,5,12,14-hexaen-9-one] | < 100 nM |
| CC(C)N1C(=O)N(c2c(F)cc(NCCNCCO)cc2F)c2cc(Cl)cc(F)c2-c2cc(F)cnc21 [1-114, 13-chloro-10-[2,6-difluoro-4-({2-[(2-hydroxyethyl)amino]ethyl}amino)phenyl]-4,15-difluoro-8-(propan-2-yl)-6,8,10-triazatricyclo[9.4.0.0^2,7]pentadeca-1(11),2(7),3,5,12,14-hexaen-9-one] | < 100 nM |
| CCN1C(=O)N(c2c(F)cc(NCCNC)cc2F)c2cc(Cl)ccc2-c2cc(C)cnc21 [1-18, 13-chloro-10-(2,6-difluoro-4-{[2-(methylamino)ethyl]amino}phenyl)-8-ethyl-4-methyl-6,8,10-triazatricyclo[9.4.0.0^2,7]pentadeca-1(11),2(7),3,5,12,14-hexaen-9-one] | < 100 nM |
| CNCCNc1cc(F)c(N2C(=O)N(C)c3ncc(F)cc3-c3c(F)cc(C#N)cc32)c(F)c1 [1-109, 10-(2,6-difluoro-4-{[2-(methylamino)ethyl]amino}phenyl)-4,15-difluoro-8-methyl-9-oxo-6,8,10-triazatricyclo[9.4.0.0^2,7]pentadeca-1(11),2(7),3,5,12,14-hexaene-13-carbonitrile] | < 100 nM |
| CCN1C(=O)N(c2c(F)cc(NCC3(CO)CNC3)cc2F)c2cc(C#N)ccc2-c2cc(Cl)cnc21 [1-158, 4-chloro-10-[2,6-difluoro-4-({[3-(hydroxymethyl)azetidin-3-yl]methyl}amino)phenyl]-8-ethyl-9-oxo-6,8,10-triazatricyclo[9.4.0.0^2,7]pentadeca-1(11),2(7),3,5,12,14-hexaene-13-carbonitrile] | 100 to 1000 nM |
| CCN1C(=O)N(c2c(F)cc(N3CC(CN)C3)cc2F)c2cc(C#N)ccc2-c2cc(F)cnc21 [1-123, 10-{4-[3-(aminomethyl)azetidin-1-yl]-2,6-difluorophenyl}-8-ethyl-4-fluoro-9-oxo-6,8,10-triazatricyclo[9.4.0.0^2,7]pentadeca-1(11),2(7),3,5,12,14-hexaene-13-carbonitrile] | < 100 nM |
| CCN1C(=O)N(c2c(F)cc(NCCNCCO)cc2F)c2cc(Cl)ccc2-c2cc(Cl)cnc21 [1-11, 4,13-dichloro-10-[2,6-difluoro-4-({2-[(2-hydroxyethyl)amino]ethyl}amino)phenyl]-8-ethyl-6,8,10-triazatricyclo[9.4.0.0^2,7]pentadeca-1(11),2(7),3,5,12,14-hexaen-9-one] | < 100 nM |
| CCN1C(=O)N(c2c(F)cc(NCCNC)cc2F)c2cc(F)ccc2-c2cc(Cl)cnc21 [1-130, 4-chloro-10-(2,6-difluoro-4-{[2-(methylamino)ethyl]amino}phenyl)-8-ethyl-13-fluoro-6,8,10-triazatricyclo[9.4.0.0^2,7]pentadeca-1(11),2(7),3,5,12,14-hexaen-9-one] | < 100 nM |
| CCN1C(=O)N(c2c(F)cc(NCCNCCO)cc2F)c2cc(C#N)ccc2-c2cc(Cl)cnc21 [1-55, 4-chloro-10-[2,6-difluoro-4-({2-[(2-hydroxyethyl)amino]ethyl}amino)phenyl]-8-ethyl-9-oxo-6,8,10-triazatricyclo[9.4.0.0^2,7]pentadeca-1(11),2(7),3,5,12,14-hexaene-13-carbonitrile] | < 100 nM |

The next lines start with the values.

| Ki | SMILES |
| --- | --- |
| < 100 nM | CCN1C(=O)N(c2ccc(NCCNC3CCOCC3)cc2F)c2cc(Cl)ccc2-c2cc(Cl)cnc21 [2-12, 4,13-dichloro-8-ethyl-10-[2-fluoro-4-({2-[(oxan-4-yl)amino]ethyl}amino)phenyl]-6,8,10-triazatricyclo[9.4.0.0^2,7]pentadeca-1(11),2(7),3,5,12,14-hexaen-9-one] |
| < 100 nM | CCN1C(=O)N(c2c(F)cc(NCCN[C@@H]3CC[C@H]3O)cc2F)c2cc(C#N)ccc2-c2cc(F)cnc21 [1-218, 10-{2,6-difluoro-4-[(2-{[(1R,2R)-2-hydroxycyclobutyl]amino}ethyl)amino]phenyl}-8-ethyl-4-fluoro-9-oxo-6,8,10-triazatricyclo[9.4.0.0^2,7]pentadeca-1(11),2(7),3,5,12,14-hexaene-13-carbonitrile] |
| < 100 nM | CCN1C(=O)N(c2c(F)cc(NCCN3CCC(O)C3)cc2F)c2cc(C#N)ccc2-c2cc(Cl)cnc21 (stereo not shown) [1-164, 4-chloro-10-(2,6-difluoro-4-{[2-(3-hydroxypyrrolidin-1-yl)ethyl]amino}phenyl)-8-ethyl-9-oxo-6,8,10-triazatricyclo[9.4.0.0^2,7]pentadeca-1(11),2(7),3,5,12,14-hexaene-13-carbonitrile] |
| < 100 nM | CCN1C(=O)N(c2c(F)cc(NCCNCCO)cc2F)c2cc(Cl)cnc2-c2cc(Cl)cnc21 [3-21, 5,14-dichloro-8-[2,6-difluoro-4-({2-[(2-hydroxyethyl)amino]ethyl}amino)phenyl]-10-ethyl-3,8,10,12-tetraazatricyclo[9.4.0.0^2,7]pentadeca-1(11),2(7),3,5,12,14-hexaen-9-one] |
| < 100 nM | CCN1C(=O)N(c2ccc(NCCNCCO)cc2)c2cc(Cl)ccc2-c2cc(Cl)cnc21 [2-9, 4,13-dichloro-8-ethyl-10-[4-({2-[(2-hydroxyethyl)amino]ethyl}amino)phenyl]-6,8,10-triazatricyclo[9.4.0.0^2,7]pentadeca-1(11),2(7),3,5,12,14-hexaen-9-one] |
| < 100 nM | CCN1C(=O)N(c2c(F)cc(NCCNCCO)cc2F)c2cc(C#N)ccc2-c2cc(C)cnc21 [1-208, 10-[2,6-difluoro-4-({2-[(2-hydroxyethyl)amino]ethyl}amino)phenyl]-8-ethyl-4-methyl-9-oxo-6,8,10-triazatricyclo[9.4.0.0^2,7]pentadeca-1(11),2(7),3,5,12,14-hexaene-13-carbonitrile] |
| < 100 nM | CN1C(=O)N(c2c(F)cc(NCCNCCO)cc2F)c2cc(C#N)ccc2-c2cc(Cl)cnc21 [1-195, 4-chloro-10-[2,6-difluoro-4-({2-[(2-hydroxyethyl)amino]ethyl}amino)phenyl]-8-methyl-9-oxo-6,8,10-triazatricyclo[9.4.0.0^2,7]pentadeca-1(11),2(7),3,5,12,14-hexaene-13-carbonitrile] |
| < 100 nM | CCN1C(=O)N(c2c(F)cc(NCCNCCO)cc2F)c2cc(Cl)ccc2-c2c1ncc(F)c2C [3-6, 13-chloro-10-[2,6-difluoro-4-({2-[(2-hydroxyethyl)amino]ethyl}amino)phenyl]-8-ethyl-4-fluoro-3-methyl-6,8,10-triazatricyclo[9.4.0.0^2,7]pentadeca-1(11),2(7),3,5,12,14-hexaen-9-one] |
| < 100 nM | CCN1C(=O)N(c2c(F)cc(NCCNC)cc2F)c2cc(Cl)c(C)cc2-c2cccnc21 [3-3, 13-chloro-10-(2,6-difluoro-4-{[2-(methylamino)ethyl]amino}phenyl)-8-ethyl-14-methyl-6,8,10-triazatricyclo[9.4.0.0^2,7]pentadeca-1(11),2(7),3,5,12,14-hexaen-9-one] |
